The results in this text go back to patent publication US11459293B2, “Compositions and methods of making expanded hematopoietic stem cells using derivatives of fluorene” (ImmuneBridge Inc., priority 2017, dated 2022).

Test [1] concerns CD34+ cells from non-mobilized peripheral blood. The test is described as follows: Long-term (21 days) expansion with Compound 1.010, non-mobilized peripheral blood (Example 36). Conditions: Compound 1.010 8 μM. Type of test: cell-based, human. The procedure: CD34+ cells from non-mobilized peripheral blood were purchased from STEMCELL Technologies. Primary human CD34+ cells were isolated from blood samples using positive immunomagnetic separation techniques.
Cryspreserved CD34+ cell samples from each source were thawed and gradually brought to room temperature. Samples were washed then placed in overnight culture in StemSpan with 100 ng/ml each of FLT3L, TPO, SCF, and IL-6.
(§1) Cultures were incubated at 3% oxygen (controlled by nitrogen) and 5% CO2.
Twenty-four hours later (day 1), cells were counted and immunophenotyped (flow cytometry on an Invitrogen Attune NxT cytometer). […] Exact cell numbers dispensed per condition were quantified for later calculations of fold change from day 1.
Wells were analyzed at days 7 and 10, flasks were analyzed at 14 and 21 days of incubation. Cell numbers and phenotypes were quantified with flow cytometry. […] An additional seven days later (day 21 of culture), cell numbers and phenotypes were again quantified with flow cytometry. Cell numbers calculated at day 21 account for the passaging of the cells.
Conditions in 96-well plates were prepared in quadruplicate; conditions in flasks were prepared in duplicate. On the above-indicated number of days in culture, cells from wells or flasks were collected and phenotypes were analyzed (flow cytometry on an Invitrogen Attune NxT cytometer).

Test [2] deals with CD34+ cells isolated from donor peripheral blood (non-mobilized). The test is described as follows: Enhancement of hematopoietic stem cells from non-mobilized peripheral blood, flow cytometry, fold change days 2 to 7 (Example 33). Type of test: cell-based. As to conditions: 8 μM sample compound, normalized fold change days 2 to 7, 3% oxygen. The procedure:
CD34+ cells were isolated from donor peripheral blood. Standard buffy coat separation using ficoll paque was performed. Cells were pelleted and incubated with unlabeled CD64 antibody. Cells then underwent negative depletion using biotinylated CD2, CD3, CD4, CD5, CD8, CD11b, CD14, CD16, CD19, CD20, CD45RA, CD56, CD235 (in some examples CD15, CD25 and other lineage specific antibodies may also be used). Cells which bind these antibodies are depleted using streptavidin beads. The enriched progenitor pool then undergoes cell sorting for CD34+.
Isolated CD34+ cells were incubated in an in vitro culture media of Alpha MEM without phenol red with 10% (v/v) heat inactivated fetal bovine serum (FBS). When testing compounds of Formula I, two internal controls were used: a positive control (+SF conditions) and a baseline control (i.e. basic conditions (“cytokines only”)). The media components and concentrations used for the compounds tested are described in Table 2. The culture also included an antibiotic solution that includes penicillin, streptomycin, and amphotericin B to avoid contamination. Controls were included because the amount of expansion in samples obtained varies from individual to individual. […]
Table 3, below, summarizes the relative expansive effect of Compound 1.001 to 1.023 (sample compounds) at the indicated concentration. […] It is calculated as shown below: […]
(In general: A flow cytometer gives signals particle by particle.)

Test [3] relates to hematopoietic stem cells derived from cord blood. The test is described as follows: Enhancement of hematopoietic stem cells from cord blood cultured with Compound 1.008, flow cytometry up to 19 days (Example 34). Type of test: cell-based. The procedure: A frozen cord blood sample was thawed and gradually brought to room temperature. Thawed cord blood was incubated in an in vitro culture media of Alpha MEM without phenol red, 10% (v/v) heat inactivated fetal bovine serum (FBS). Four samples were tested: Base conditions, +SF Conditions, +1.008 Conditions, and +1.008/+ER conditions. The components included in each condition is described in Table 4. Each condition tested also included an antibiotic solution that includes penicillin, streptomycin, and amphotericin B to avoid contamination.
as §1
Small molecule components were added separately and fresh each time the media needs to be refreshed. Cytokines can be stored together. Media renewal should occur at least every few days.
On the days indicated varying amounts of the cell culture was removed for data analysis (flow cytometry using a BD FACS ARIA II) and to avoid overcrowding of cells. The culture volume was replenished with fresh media according to the conditions tested. The data reported accounts for the dilution factor introduced in this procedure.

With `CC(C)(C)C(=O)Nc1ccc2c(c1)C(O)c1ccccc1-2` (centres unmarked) [Compound 1.010], the “expansion of CD34+ cells” value in test [1] (fold change from day 1, up to 21 days in culture, 3% oxygen, FIG. 54B) is “greater than nine-fold”. Also, the “expansion compared with cytokines alone” value in test [1] (up to 21 days) is on record as “far surpasses”.

Regarding `CC(C)(C)C(=O)Nc1ccc2c(c1)C(=O)CC2` [Compound 1.019], in test [2], the “CD90 effect (relative expansive effect on CD34+/CD133+/CD90+ cells)” value is given as “++ (0.2 ≤ x < 0.55)” and the “CD133 effect (relative expansive effect on CD34+/CD133+ cells)” value was “++ (0.2 ≤ x < 0.55)”.

Consider ER50891 [reference compound], for which the “fold increase levels on addition of ER50891 to +1.008 conditions” value in test [3] (ER50891 100 nM with Compound 1.008 250 nM, 19 days) is reported as “even further improved”.

In the case of `CC(C)(C)C(=O)Nc1ccc2c(c1)C(=O)c1cc(N)ccc1-2` [Compound 1.008, N-(7-amino-9-oxo-9H-fluoren-2-yl)pivalamide], the “maintenance and expansion of hematopoietic stem cells in culture” value in test [3] (+1.008 Conditions (250 nM), 19 days in culture) is “maintained and continue to expand”. Besides, in test [3] (FIG. 24B-E, versus Base and +SF conditions), the “total number of CD34+, CD34+/CD133+, CD34+/CD133+/CD90+ and CD34+/CD133+/CD90+/CD38 low/− cells (flow cytometric cell counts)” value is reported as “increase”. The “increase in CD34+ cells from day 2” value in test [3] (after 19 days in culture, Compound 1.008 250 nM, 3% oxygen, FIG. 25B) is on record as “greater than 50 fold”. Moreover, in test [3] (after 19 days in culture, Compound 1.008 250 nM, 3% oxygen, FIG. 25C), the “increase in CD34+/CD133+ cells from day 2” value is recorded as “greater than 50 fold”. Also, the “increase in CD34+/CD133+/CD90+ cells from day 2” value in test [3] (after 19 days in culture, Compound 1.008 250 nM, 3% oxygen, FIG. 25D) is recorded as about 20 fold. Further, in test [3] (after 19 days in culture, Compound 1.008 250 nM, 3% oxygen, FIG. 25E), the “increase in CD34+/CD133+/CD90+/CD38low/− cells from day 2” value is listed as over 12 fold.
